The target in experiment [1] is T1, ALDH2 (Homo sapiens, UniProt P05091).
T1 construct: His-tag (N); made in house; host or cells: E. coli BL21
T1 sequence (P05091 18-517): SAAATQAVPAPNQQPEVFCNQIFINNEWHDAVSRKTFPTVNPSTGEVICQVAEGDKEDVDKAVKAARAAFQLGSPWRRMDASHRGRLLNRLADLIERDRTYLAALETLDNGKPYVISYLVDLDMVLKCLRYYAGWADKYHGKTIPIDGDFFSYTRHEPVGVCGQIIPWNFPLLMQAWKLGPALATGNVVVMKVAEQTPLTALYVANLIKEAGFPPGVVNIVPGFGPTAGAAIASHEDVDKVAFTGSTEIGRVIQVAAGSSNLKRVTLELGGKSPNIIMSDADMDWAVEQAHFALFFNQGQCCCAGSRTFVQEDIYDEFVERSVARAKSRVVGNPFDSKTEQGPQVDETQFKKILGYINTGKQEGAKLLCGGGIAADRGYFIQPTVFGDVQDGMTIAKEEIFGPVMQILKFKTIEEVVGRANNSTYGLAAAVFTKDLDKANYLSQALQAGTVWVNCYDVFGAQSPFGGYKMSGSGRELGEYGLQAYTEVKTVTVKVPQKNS
The experiment is described as follows: ALDH2 activity with 20 μM of the compound (Table 3). Format: biochemical. The note with it: 20 μM compound. The gist of the method: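 Compound was tested at 20 μM. ALDH2 oxidation of acetaldehyde with NAD+ cofactor was followed spectrophotometrically as NADH accumulation at 340 nm. Activity is expressed relative to the enzyme's baseline activity, taken as 100%.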

Experiment [2] has as its target T2, ALDH2 (Mus musculus, UniProt P47738).
T2 construct: In this study we have also determined the ALDH2 activity in muscle tissue; from tissue; host or cells: skeletal muscle of WT mice with femoral artery occlusion
T2 sequence (P47738 20-519): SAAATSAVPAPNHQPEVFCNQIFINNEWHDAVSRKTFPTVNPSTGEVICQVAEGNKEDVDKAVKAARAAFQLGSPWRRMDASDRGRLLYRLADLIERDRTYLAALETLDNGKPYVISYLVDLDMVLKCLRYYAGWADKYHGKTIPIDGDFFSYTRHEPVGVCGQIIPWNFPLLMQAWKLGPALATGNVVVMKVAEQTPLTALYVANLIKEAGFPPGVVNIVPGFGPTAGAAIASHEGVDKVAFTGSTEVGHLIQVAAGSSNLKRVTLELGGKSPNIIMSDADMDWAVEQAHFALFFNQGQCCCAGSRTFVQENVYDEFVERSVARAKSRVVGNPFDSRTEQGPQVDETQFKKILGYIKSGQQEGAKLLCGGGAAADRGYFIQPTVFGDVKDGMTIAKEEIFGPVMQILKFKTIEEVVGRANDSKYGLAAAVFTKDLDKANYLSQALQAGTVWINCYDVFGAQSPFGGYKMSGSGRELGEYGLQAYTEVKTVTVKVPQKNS
The experiment is described as follows: ALDH2 activity of muscle tissue in PAD mice. Conditions: osmotic pump for 28 days. The class given is in vivo. Here is the method: (§1) The animals, WT mice age 18-22 weeks, were anesthetized with an intraperitoneal (IP) injection of esketamine (100 mg/ml) dose 80-100 mg/kg and xylazine (20 mg/ml) dose 4-6 mg/kg. Hair was entirely removed from the surgical area and a longitudinal incision was made beginning at the inguinal crease along the femoral vessels. The connective tissue sheet between the femoral artery and vein was then carefully dissected and an opening between the femoral artery and vein was made. Artery ligation thread was then used to occlude the femoral artery using triple surgical knots. The incision was then closed and the animals were administered a single dose of buprenorphine (0.1 mg/kg) subcutaneously to control ischemic pain.
(§2) The animals under permanent femoral artery occlusion at day zero, were treated with ALDH2 activators, Alda-1 and AC112, via osmotic pump for 28 days. The effects of the compounds of the present invention on functional capacity were assessed in mice using treadmill exercise in a metabolic chamber.
In this study we have also determined the ALDH2 activity in muscle tissue.

In experiment [3] the test system is PAD wild type mice. Put plainly: Limb ischemia model for peripheral arterial disease (PAD). The note with it: osmotic pump for 28 days. Format: in vivo. Here is the method: Mice are anesthetized and hair is entirely removed from the surgical area. A longitudinal incision is inguinal crease along the femoral vessels and the connective tissue sheet between the femoral artery and vein is carefully dissected. An opening between the femoral artery and vein is made and the femoral artery is occluded using triple surgical knots. The incision is then closed.
The animals under permanent femoral artery occlusion are treated with compounds of formula (I) and the effects of the compounds on functional capacity is assessed in mice using treadmill exercise in a metabolic chamber.
The limb ischemia-murine animal model was utilized as a surrogated model for peripheral arterial disease as described in Nature Protocols, 4, 1737-1748 (2009). (Limbourg, A., et. als., Evaluation of postnatal arteriogenesis and angiogenesis in a mouse model of hind-limb ischemia, Nature Protocols, 4, 1737-1748 (2009)). All experiments were run according to national and institutional regulations concerning the use of animals for research purposes and permissions to carry out experiments have to be obtained.
as §1, §2

Here are results for 1 compound from patent publication US9879036B2, “Mitochondrial aldehyde dehydrogenase-2 binding compounds and methods of use thereof” (Aviv Therapeutics, Inc., priority 2014, dated 2018).

For the compound `COc1ccc(CNC(=O)c2cc(-c3ncccc3CO)ccc2OCC(C)C)cc1F` [AC112], the activity at 20 µM in experiment [1] is over 250%. In addition, the “ALDH2 activity of muscle tissue” value in experiment [2] is reported as “increased the ALDH2 activity of muscle tissue”. In experiment [3], the pain threshold result was “improve pain threshold” and the “skeletal muscle resistance to fatigue (contractility measured ex vivo)” value is reported as “improve the skeletal muscle resistance to fatigue”. Also, in experiment [3] (WT mice), the “PAD-induced skeletal muscle atrophy” value is listed as “minimizes PAD-induced skeletal muscle atrophy”. In addition, in experiment [3] (treadmill), the running distance result is “improve” and the running time entry is “improve”.
